{"source": "patent US9371365B2", "about": "“Modified compstatin with peptide backbone and C-terminal modifications” (The Trustees of the University of Pennsylvania, priority 2009, dated 2016)", "key": {"[1]": {"biological_target": "T1, C3b (Homo sapiens, UniProt P01024)", "T1 construct": "biotin (chemical biotinylation of C3b)", "T1 sequence (P01024 23-667 limits assumed)": "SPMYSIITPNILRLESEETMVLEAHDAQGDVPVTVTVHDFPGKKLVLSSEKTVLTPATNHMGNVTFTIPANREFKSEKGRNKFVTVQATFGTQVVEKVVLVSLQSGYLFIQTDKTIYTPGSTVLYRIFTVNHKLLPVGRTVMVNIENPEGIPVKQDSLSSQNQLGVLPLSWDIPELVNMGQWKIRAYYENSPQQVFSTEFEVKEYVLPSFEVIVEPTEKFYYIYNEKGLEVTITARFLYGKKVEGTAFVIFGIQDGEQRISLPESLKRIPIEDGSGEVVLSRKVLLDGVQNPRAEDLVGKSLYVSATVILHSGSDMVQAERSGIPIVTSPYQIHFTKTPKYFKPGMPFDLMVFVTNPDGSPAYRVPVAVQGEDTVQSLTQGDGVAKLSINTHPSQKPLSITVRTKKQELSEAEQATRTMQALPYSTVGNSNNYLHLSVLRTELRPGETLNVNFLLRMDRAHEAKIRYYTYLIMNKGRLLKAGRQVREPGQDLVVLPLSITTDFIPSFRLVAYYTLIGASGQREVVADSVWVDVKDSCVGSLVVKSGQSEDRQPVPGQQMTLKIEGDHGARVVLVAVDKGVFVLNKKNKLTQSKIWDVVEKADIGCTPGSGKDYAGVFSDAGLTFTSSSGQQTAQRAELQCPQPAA", "T1 sequence (P01024 749-1663 limits assumed)": "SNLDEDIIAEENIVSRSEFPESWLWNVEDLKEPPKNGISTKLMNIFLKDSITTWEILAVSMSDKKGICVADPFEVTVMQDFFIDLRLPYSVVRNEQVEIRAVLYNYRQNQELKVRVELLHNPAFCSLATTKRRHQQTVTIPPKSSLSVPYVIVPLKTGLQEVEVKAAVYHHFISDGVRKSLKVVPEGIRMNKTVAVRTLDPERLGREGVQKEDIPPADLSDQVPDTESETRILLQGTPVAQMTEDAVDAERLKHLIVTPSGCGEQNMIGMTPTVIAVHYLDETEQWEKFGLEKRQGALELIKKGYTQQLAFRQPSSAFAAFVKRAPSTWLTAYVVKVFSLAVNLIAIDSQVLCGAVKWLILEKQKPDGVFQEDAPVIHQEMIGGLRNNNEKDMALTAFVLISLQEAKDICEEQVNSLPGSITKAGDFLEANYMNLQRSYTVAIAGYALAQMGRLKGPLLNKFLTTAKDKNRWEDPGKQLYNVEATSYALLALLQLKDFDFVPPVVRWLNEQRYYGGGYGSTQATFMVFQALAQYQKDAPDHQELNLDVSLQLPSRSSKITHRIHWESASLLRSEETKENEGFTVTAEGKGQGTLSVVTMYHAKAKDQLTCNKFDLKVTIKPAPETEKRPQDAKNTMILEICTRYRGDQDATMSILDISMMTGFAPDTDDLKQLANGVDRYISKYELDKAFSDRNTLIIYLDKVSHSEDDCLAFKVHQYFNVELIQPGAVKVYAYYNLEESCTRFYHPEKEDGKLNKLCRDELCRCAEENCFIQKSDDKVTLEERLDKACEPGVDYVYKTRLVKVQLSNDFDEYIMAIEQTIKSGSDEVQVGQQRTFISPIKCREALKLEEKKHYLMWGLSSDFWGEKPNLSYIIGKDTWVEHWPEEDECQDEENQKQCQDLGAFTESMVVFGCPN", "assay": "SPR analysis of binding kinetics to immobilized C3b", "conditions": "for kd: 25° C., PBS-T; for kon: pH 7.4, read-out: ka; for rKD SPR / rka / rkd: relative to peptide 14", "method": "(§1) The kinetics of the interaction between C3b and each compstatin analog was analyzed by SPR on a Biacore 3000 instrument (GE Healthcare Corp., Piscataway, N.J.) at 25° C. using PBS-T (10 mM sodium phosphate, 150 mM NaCl, 0.005% Tween-20, pH 7.4) as the running buffer, as described above. In brief, biotinylated C3b (30 μg/mL) was immobilized on a streptavidin-coated sensor chip, and a two-fold serial dilution series (1 μM-500 pM) of each analog was injected for 2 min at 30 μl/min, with a dissociation phase of 5-10 min. Peptide [Trp(Me)^4]-Ac-compstatin was included in each experimental series as an internal control and reference. Data analysis was performed using Scrubber (BioLogic Software, Campbell, Australia). The signals from an untreated flow cell and an ensemble of buffer blank injections were subtracted to correct for buffer effects and injection artifacts. Processed biosensor data were globally fitted to a 1:1 Langmuir binding model, and the equilibrium dissociation constant (KD) was calculated from the equation KD=kd/ka. Peptide solutions were injected in duplicate in every experiment, and each screening assay was performed at least twice.\nas §1, with “in Example 1.” for “above.”, “μg/ml)” for “μg/mL)”, “Peptide [Trp(Me)^4]-Ac-compstatin was included in each experimental series as an internal control and reference.” left out"}, "[2]": {"biological_target": "T2, C3 (Homo sapiens, UniProt P01024)", "T2 construct": "C3 was purified from fresh human plasma; from tissue; host or cells: fresh human plasma (blood bank of the Hospital of the University of Pennsylvania)", "T2 sequence (P01024 23-667 limits assumed)": "as the sequence (P01024 23-667 limits assumed) above", "T2 sequence (P01024 672-1663 limits assumed)": "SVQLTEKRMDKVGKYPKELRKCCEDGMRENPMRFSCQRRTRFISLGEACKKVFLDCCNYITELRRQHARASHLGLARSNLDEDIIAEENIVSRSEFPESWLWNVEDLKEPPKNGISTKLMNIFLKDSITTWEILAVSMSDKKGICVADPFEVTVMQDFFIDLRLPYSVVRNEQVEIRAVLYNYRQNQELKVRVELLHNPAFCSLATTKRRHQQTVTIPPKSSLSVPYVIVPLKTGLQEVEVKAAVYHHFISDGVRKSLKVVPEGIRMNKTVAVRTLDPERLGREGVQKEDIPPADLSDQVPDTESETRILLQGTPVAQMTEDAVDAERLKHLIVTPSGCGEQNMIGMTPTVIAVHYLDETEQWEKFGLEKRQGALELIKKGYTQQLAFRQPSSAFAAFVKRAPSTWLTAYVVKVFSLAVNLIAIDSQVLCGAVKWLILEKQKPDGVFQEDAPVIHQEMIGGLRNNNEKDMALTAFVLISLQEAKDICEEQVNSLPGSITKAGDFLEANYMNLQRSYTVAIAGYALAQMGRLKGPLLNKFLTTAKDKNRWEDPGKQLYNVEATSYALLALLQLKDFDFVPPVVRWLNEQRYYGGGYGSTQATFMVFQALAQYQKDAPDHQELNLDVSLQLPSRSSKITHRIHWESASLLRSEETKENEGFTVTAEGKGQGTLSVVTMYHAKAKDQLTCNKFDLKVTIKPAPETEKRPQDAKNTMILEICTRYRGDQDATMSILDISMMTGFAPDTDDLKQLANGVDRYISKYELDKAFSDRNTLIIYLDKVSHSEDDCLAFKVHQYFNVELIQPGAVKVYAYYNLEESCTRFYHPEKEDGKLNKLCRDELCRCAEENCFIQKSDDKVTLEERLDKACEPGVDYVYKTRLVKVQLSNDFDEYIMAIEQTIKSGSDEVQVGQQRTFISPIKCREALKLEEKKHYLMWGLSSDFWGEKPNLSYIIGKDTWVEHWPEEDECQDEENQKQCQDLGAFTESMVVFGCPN", "assay": "ITC analysis of binding to C3", "conditions": "for ΔH / −TΔS / ΔG: ITC; for ΔG: ΔG=ΔH−TΔS; for rKD ITC / ΔΔG / ΔΔH / −TΔΔS: relative to peptide 14", "method": "C3 was purified from fresh human plasma obtained from the blood bank of the Hospital of the University of Pennsylvania. In brief, the plasma was fractionated with 15% (w/v) PEG 3350, and the pellet was resuspended in 20 mM phosphate buffer, pH 7.8, and then subjected to anion-exchange chromatography on a DEAE-HR 40 column (50×5 cm; Millipore Inc., Billerica, Mass.) with the same buffer. Proteins were eluted with 6 L of a linear gradient (15-70%) of 20 mM phosphate buffer, pH 7.8, containing 500 mM NaCl. C3 was further purified on a size-exclusion Superdex 200 26/60 column (Amersham Biosciences) and a Mono S column (Amersham Biosciences) to separate C3 from C3(H2O).\nAll titrations were performed in PBS (10 mM phosphate buffer with 150 mM NaCl, pH 7.4) at 25° C. using multiple peptide injections of 2-7 μL each. The raw isotherms were corrected for the heats of dilution by subtracting the isotherms representing peptide injections into the buffer. The resulting isotherms were fitted to a single site of sites models using Origin 7.0 software, and the model that produced the lowest χ^2 value was deemed to be appropriate for the respective data set. The Gibbs free energy was calculated as ΔG=ΔH−TΔS. Each experiment was repeated at least twice."}, "[3]": {"system": "classical pathway of complement", "assay": "Inhibition of classical pathway complement activation, ELISA in human serum", "format": "biochemical", "conditions": "for IC50: read-out: IC50; for rP: relative potency compared to peptide 14; for inhibition of complement activation, result in words: ELISA, N-methylation scan", "method": "The ability of the compstatin analogs to inhibit the activation of the classical pathway of complement was assessed by ELISA (Mallik et al., 2005, J Med Chem 48:274-86). In brief, complement was activated in human serum using an antigen-antibody complex in the presence or absence of compstatin analogs, and the deposition of C3 fragments on the plate surface was detected using an HRP-conjugated polyclonal anti-C3 antibody. […] The percent inhibition was plotted against the peptide concentration, and the resulting data set was fitted to the logistic dose-response function using Origin 7.0 software. IC50 values were obtained from the fitted parameters that produced the lowest χ^2 value. Each analog was assayed at least three to seven times.\nThe ability of the compstatin analogs to inhibit the activation of the classical pathway of complement was assessed by ELISA as described in Example 1. Each conjugate was assayed at least three times."}}, "note": "Like-named read-outs stand apart in the source and are kept apart here. Bridge positions count the residues as written; N and C are the ends. Square brackets hold non-standard residues; d marks the D form. Peptide text beside a SMILES is read from it. Trp(1-Me) = Cn1cc(C[C@H](N)C(=O)O)c2ccccc21; NMeY = CN[C@@H](Cc1ccc(O)cc1)C(=O)O; NMeV = CN[C@H](C(=O)O)C(C)C; NMeA = CN[C@@H](C)C(=O)O; Nle = CCCC[C@H](N)C(=O)O; Sar = CNCC(=O)O"}
{"molecule": "CC[C@H](C)[C@H](NC(=O)[C@@H]1CSSC[C@H](NC(=O)[C@@H](NC(C)=O)[C@@H](C)CC)C(=O)N[C@@H](C(C)C)C(=O)N[C@@H](Cc2cn(C)c3ccccc23)C(=O)N[C@@H](CCC(N)=O)C(=O)N[C@@H](CC(=O)O)C(=O)N[C@@H](Cc2c[nH]c3ccccc23)C(=O)NCC(=O)N[C@@H](C)C(=O)N[C@@H](Cc2c[nH]cn2)C(=O)N[C@@H](CCCNC(=N)N)C(=O)N1)C(N)=O", "note": "[Peptide 16]", "values": [{"measurement": "kd", "setting": "[1]; SPR", "value": "11.0 10^−3/s"}, {"measurement": "kon", "setting": "[1]", "value": "1e+06", "unit": "M⁻¹ s⁻¹"}, {"measurement": "rKD SPR", "setting": "[1]", "value": 1.1}, {"measurement": "rka", "setting": "[1]", "value": 1.0}, {"measurement": "rkd", "setting": "[1]", "value": 1.0}, {"measurement": "ΔH", "setting": "[2]", "value": -16.6, "unit": "kcal/mol"}, {"measurement": "−TΔS", "setting": "[2]", "value": 5.7, "unit": "kcal/mol"}, {"measurement": "ΔG", "setting": "[2]", "value": -10.9, "unit": "kcal/mol"}, {"measurement": "rKD ITC", "setting": "[2]", "value": 1.2}, {"measurement": "ΔΔG", "setting": "[2]", "value": -0.2, "unit": "kcal/mol"}, {"measurement": "ΔΔH", "setting": "[2]", "value": 1.0, "unit": "kcal/mol"}, {"measurement": "−TΔΔS", "setting": "[2]", "value": -1.3, "unit": "kcal/mol"}]}
{"molecule": "CC[C@H](C)[C@H](NC(C)=O)C(=O)N[C@H]1CSSC[C@@H](C(=O)N[C@@H](CC(C)C)C(N)=O)NC(=O)[C@H](CCCNC(=N)N)NC(=O)[C@H](Cc2c[nH]cn2)NC(=O)[C@H](C)NC(=O)CN(C)C(=O)[C@H](Cc2c[nH]c3ccccc23)NC(=O)[C@H](CC(=O)O)NC(=O)[C@H](CCC(N)=O)NC(=O)[C@H](Cc2cn(C)c3ccccc23)NC(=O)[C@H](C(C)C)NC1=O", "note": "[Peptide 18, Ac−Ic[CV(^1−MeW)QDW(^N−MeG)AHRC]L-NH2] (Ac-ICV[Trp(1-Me)]QDW[Sar]AHRCL-NH2; disulfide 2-12)", "values": [{"measurement": "IC50", "setting": "[3]; Table 1-2", "value": 108, "unit": "nM"}, {"measurement": "IC50", "setting": "[3]; exemplary analogs table", "value": 108, "unit": "nM"}, {"measurement": "rP", "setting": "[3]", "value": 1.9}, {"measurement": "kd", "setting": "[1]; SPR", "value": "6.0 10^−3/s"}, {"measurement": "kon", "setting": "[1]", "value": "1.3e+06", "unit": "M⁻¹ s⁻¹"}, {"measurement": "rKD SPR", "setting": "[1]", "value": 2.6}, {"measurement": "rka", "setting": "[1]", "value": 1.3}, {"measurement": "rkd", "setting": "[1]", "value": 1.9}]}
{"molecule": "CCCC[C@H](NC(=O)[C@@H]1CSSC[C@H](NC(=O)[C@@H](NC(C)=O)[C@@H](C)CC)C(=O)N[C@@H](C(C)C)C(=O)N[C@@H](Cc2cn(C)c3ccccc23)C(=O)N[C@@H](CCC(N)=O)C(=O)N[C@@H](CC(=O)O)C(=O)N[C@@H](Cc2c[nH]c3ccccc23)C(=O)N(C)CC(=O)N[C@@H](C)C(=O)N[C@@H](Cc2c[nH]cn2)C(=O)N[C@@H](CCCNC(=N)N)C(=O)N1)C(N)=O", "note": "[Peptide 19, Ac−Ic[CV(^1−MeW)QDW(^N−MeG)AHRC](Nle)-NH2] (Ac-ICV[Trp(1-Me)]QDW[Sar]AHRC[Nle]-NH2; disulfide 2-12)", "values": [{"measurement": "IC50", "setting": "[3]; Table 1-2", "value": 109, "unit": "nM"}, {"measurement": "IC50", "setting": "[3]; exemplary analogs table", "value": 109, "unit": "nM"}, {"measurement": "rP", "setting": "[3]", "value": 1.9}, {"measurement": "kd", "setting": "[1]; SPR", "value": "6.6 10^−3/s"}, {"measurement": "kon", "setting": "[1]", "value": "1.5e+06", "unit": "M⁻¹ s⁻¹"}, {"measurement": "rKD SPR", "setting": "[1]", "value": 2.7}, {"measurement": "rka", "setting": "[1]", "value": 1.5}, {"measurement": "rkd", "setting": "[1]", "value": 1.7}]}
{"molecule": "CC[C@H](C)[C@H](NC(C)=O)C(=O)N[C@H]1CSSC[C@@H](C(=O)N(C)[C@H](C(N)=O)[C@@H](C)CC)NC(=O)[C@H](CCCNC(=N)N)NC(=O)[C@H](Cc2c[nH]cn2)NC(=O)[C@H](C)NC(=O)CN(C)C(=O)[C@H](Cc2c[nH]c3ccccc23)NC(=O)[C@H](CC(=O)O)NC(=O)[C@H](CCC(N)=O)NC(=O)[C@H](Cc2cn(C)c3ccccc23)NC(=O)[C@H](C(C)C)NC1=O", "note": "[Peptide 21, Ac−Ic[CV(^1−MeW)QDW(^N−MeG)AHRC](^N−MeI)-NH2]", "values": [{"measurement": "IC50", "setting": "[3]; Table 1-2", "value": 62, "unit": "nM"}, {"measurement": "IC50", "setting": "[3]; exemplary analogs table", "value": 62, "unit": "nM"}, {"measurement": "rP", "setting": "[3]", "value": 3.3}, {"measurement": "fold stronger affinity than peptide 14", "setting": "[1]; SPR", "value": "more than 5 fold"}, {"measurement": "kd", "setting": "[1]; SPR", "value": "3.5 10^−3/s"}, {"measurement": "kon", "setting": "[1]", "value": "1.5e+06", "unit": "M⁻¹ s⁻¹"}, {"measurement": "rKD SPR", "setting": "[1]", "value": 5.2}, {"measurement": "rka", "setting": "[1]", "value": 1.5}, {"measurement": "rkd", "setting": "[1]", "value": 3.2}, {"measurement": "ΔH", "setting": "[2]", "value": -17.1, "unit": "kcal/mol"}, {"measurement": "−TΔS", "setting": "[2]", "value": 5.7, "unit": "kcal/mol"}, {"measurement": "ΔG", "setting": "[2]", "value": -11.4, "unit": "kcal/mol"}, {"measurement": "rKD ITC", "setting": "[2]", "value": 3.3}, {"measurement": "ΔΔG", "setting": "[2]", "value": -0.7, "unit": "kcal/mol"}, {"measurement": "ΔΔH", "setting": "[2]", "value": 0.5, "unit": "kcal/mol"}, {"measurement": "−TΔΔS", "setting": "[2]", "value": -1.3, "unit": "kcal/mol"}]}
{"molecule": "Ac-I[C(NMe)VYQDWGAHRC]T-NH2 (Ac-IC[NMeV]YQDWGAHRCT-NH2; disulfide 2-12; SMILES CC[C@H](C)[C@H](NC(C)=O)C(=O)N[C@H]1CSSC[C@@H](C(=O)N[C@H](C(N)=O)[C@@H](C)O)NC(=O)[C@H](CCCNC(=N)N)NC(=O)[C@H](Cc2c[nH]cn2)NC(=O)[C@H](C)NC(=O)CNC(=O)[C@H](Cc2c[nH]c3ccccc23)NC(=O)[C@H](CC(=O)O)NC(=O)[C@H](CCC(N)=O)NC(=O)[C@H](Cc2ccc(O)cc2)NC(=O)[C@H](C(C)C)N(C)C1=O) [Peptide 3]", "values": [{"measurement": "inhibition of complement activation, result in words", "setting": "[3]", "value": "completely inactive"}]}
{"molecule": "Ac-I[CV(NMe)YQDWGAHRC]T-NH2 (Ac-ICV[NMeY]QDWGAHRCT-NH2; disulfide 2-12; SMILES CC[C@H](C)[C@H](NC(C)=O)C(=O)N[C@H]1CSSC[C@@H](C(=O)N[C@H](C(N)=O)[C@@H](C)O)NC(=O)[C@H](CCCNC(=N)N)NC(=O)[C@H](Cc2c[nH]cn2)NC(=O)[C@H](C)NC(=O)CNC(=O)[C@H](Cc2c[nH]c3ccccc23)NC(=O)[C@H](CC(=O)O)NC(=O)[C@H](CCC(N)=O)NC(=O)[C@H](Cc2ccc(O)cc2)N(C)C(=O)[C@H](C(C)C)NC1=O) [Peptide 4]", "values": [{"measurement": "inhibition of complement activation, result in words", "setting": "[3]", "value": "completely inactive"}]}
{"molecule": "Ac-I[CVYQDWG(NMe)AHRC]T-NH2 (Ac-ICVYQDWG[NMeA]HRCT-NH2; disulfide 2-12; SMILES CC[C@H](C)[C@H](NC(C)=O)C(=O)N[C@H]1CSSC[C@@H](C(=O)N[C@H](C(N)=O)[C@@H](C)O)NC(=O)[C@H](CCCNC(=N)N)NC(=O)[C@H](Cc2c[nH]cn2)NC(=O)[C@H](C)N(C)C(=O)CNC(=O)[C@H](Cc2c[nH]c3ccccc23)NC(=O)[C@H](CC(=O)O)NC(=O)[C@H](CCC(N)=O)NC(=O)[C@H](Cc2ccc(O)cc2)NC(=O)[C@H](C(C)C)NC1=O) [Peptide 9]", "values": [{"measurement": "inhibition of complement activation, result in words", "setting": "[3]", "value": "completely inactive"}]}
